The values that follow come from ChEMBL document CHEMBL1141732, “Croton ruizianus: platelet proaggregating activity of two new pregnane glycosides” (J Nat Prod, 1998).

In data set [1] the test system is Platelet. Description: Induction of human washed-platelet aggregation at 20 ug/test tube after 1 min by light transmission aggregometer. It is filed as functional.
Data set [2] relates to Platelet. Description: Induction of human washed-platelet aggregation at 273 ug/test tube after 4 mins by light transmission aggregometer. It is filed as functional.
The nature of data set [3]: Cytotoxicity against human washed-platelet assessed as LDH release after 5 mins by sonication method. The class given is cell-based. A general note: LDH leaks from cells whose membrane has failed.
The subject of data set [4] is Platelet. Description: Induction of human washed-platelet aggregation at 20 ug/test tube after 4 mins by light transmission aggregometer. The class given is functional.
Data set [5] concerns Platelet. Description: Induction of human washed-platelet aggregation at 273 ug/test tube after 1 min by light transmission aggregometer. It is filed as functional.
Data set [6] concerns Platelet. Description: Induction of human washed-platelet aggregation at 232 ug/test tube after 4 mins by light transmission aggregometer. It is filed as functional.
Data set [7] relates to Platelet. Description: Induction of human washed-platelet aggregation at 232 ug/test tube after 1 min by light transmission aggregometer. It is filed as functional.
The subject of data set [8] is Platelet. Description: Induction of human washed-platelet aggregation at 82 ug/test tube after 4 mins by light transmission aggregometer. It is filed as functional.
The subject of data set [9] is Platelet. Description: Induction of human washed-platelet aggregation at 82 ug/test tube after 1 min by light transmission aggregometer. The class given is functional.
In data set [10] the test system is Platelet. Description: Induction of human washed-platelet aggregation at 85 ug/test tube after 4 mins by light transmission aggregometer. It is filed as functional.
The subject of data set [11] is Platelet. Description: Induction of human washed-platelet aggregation at 85 ug/test tube after 1 min by light transmission aggregometer. The class given is functional.

Take `CO[C@@H]1[C@@H](O)[C@H](O[C@H]2CC[C@@]3(C)[C@@H](CC[C@@H]4[C@@H]3CC[C@]3(C)[C@@H](C(C)=O)[C@H](O)[C@@H](O)[C@]43O)C2)O[C@H](C)[C@H]1O[C@@H]1C[C@@H](O)[C@@H](O[C@@H]2C[C@H](OC)[C@@H](O[C@H]3C[C@@H](OC)[C@H](O[C@@H]4O[C@H](CO)[C@@H](O)[C@H](O)[C@H]4O)[C@@H](C)O3)[C@H](C)O2)[C@H](C)O1`: the Activity with Platelet [1] is 5.3%; in the data set with Platelet [2], 42.3%; in [3], “<= 3.8%”; with Platelet [4] it was 9.4%; with Platelet [5], 14.1%.
For `CO[C@@H]1[C@@H](O)[C@H](O[C@H]2CC[C@@]3(C)[C@@H](CC[C@@H]4[C@@H]3CC[C@]3(C)[C@@H](C(C)=O)[C@H](O)[C@@H](O)[C@]43O)C2)O[C@H](C)[C@H]1O[C@@H]1C[C@@H](O)[C@@H](O[C@@H]2C[C@H](OC)[C@@H](O[C@H]3C[C@@H](OC)[C@H](O)[C@@H](C)O3)[C@H](C)O2)[C@H](C)O1`, the Activity in the data set on Platelet [1] was 12.5%; in the data set on Platelet [6], 54.5%; in data set [3], “<= 3.8%”; in the data set with Platelet [7], 18.3%; in the data set on Platelet [4], 12.5%.
In the case of `COC1=C[C@]23CCN(C)[C@H](Cc4cc(OC)c(O)cc42)C3=CC1=O` [FLAVINANTINE], the Activity is 2.1% in the data set on Platelet [1]; “<= 3.8%” in data set [3]; 17.5% in the data set on Platelet [8]; 3.5% with Platelet [4]; 6.3% in the data set on Platelet [9].
For the compound `COC1=C[C@]23CCN(C)[C@H](Cc4cc(OC)c(OC)cc42)C3=CC1=O` [O-METHYLFLAVINANTINE], the Activity with Platelet [1] is reported as 0%; in data set [3], “<= 3.8%”; in the data set with Platelet [10] it was 8.8%; in the data set with Platelet [11], 3.1%; in the data set with Platelet [4], 0%.
